Source: the supplement of paper PMC10307832

Legend:
Assay in all cases: relative viability (nuclei count vs DMSO), 5 days (fraction); higher = more cells survive
[1] = test system: NCI-H2347
Outline: (§1)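 Five library-drug doses in √10 steps were combined with a fixed anchor-drug dose, or a single drug was given alone, by pin tool to lung cancer cell lines in 1536-well plates the day after seeding. Nuclei were stained and counted after 5 days. Relative viability is the nuclei count in treated wells over that in vehicle wells, taken as the median of duplicate plates.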

[2] = test system: LK-2
Outline: as §1

[3] = test system: NCI-H650
Outline: as §1

[4] = test system: ChaGo-K-1
Outline: as §1

[5] = test system: NCI-H358
Outline: as §1

[6] = test system: NCI-H1944
Outline: as §1

[7] = test system: SW 900
Outline: as §1

[8] = test system: NCI-H520
Outline: as §1

[9] = test system: SW 1573
Outline: as §1

[10] = test system: NCI-H3122
Outline: as §1

[11] = test system: NCI-H460
Outline: as §1

[12] = test system: NCI-H1755
Outline: as §1

[13] = test system: NCI-H1666
Outline: as §1

[14] = test system: NCI-H441
Outline: as §1

[15] = test system: A-427
Outline: as §1

[16] = test system: H3255
Outline: as §1

[17] = test system: NCI-H2085
Outline: as §1

[18] = test system: NCI-H1734
Outline: as §1

[19] = test system: NCI-H596
Outline: as §1

[20] = test system: NCI-H322M
Outline: as §1

[21] = test system: NCI-H1650
Outline: as §1

[22] = test system: NCI-H1355
Outline: as §1

[23] = test system: NCI-H838
Outline: as §1

[24] = test system: EKVX
Outline: as §1

[25] = test system: NCI-H2228
Outline: as §1

With `CCCCCCCCCCCC1=C(O)C(=O)C=C(O)C1=O` [Embelin] + O=C(c1cc(Cc2n[nH]c(=O)c3ccccc23)ccc1F)N1CCN(C(=O)C2CC2)CC1 [Olaparib] (partner 8 µM) the relative viability ([1]; first compound 0.08 µM) was 0.596, the relative viability ([1]; first compound 0.8 µM) was 0.641 and the relative viability ([1]; first compound 2.53 µM) was 0.521. The relative viability ([1]; first compound 8 µM) was 0.68, the relative viability ([2]; first compound 0.08 µM) was 0.72 and the relative viability ([2]; first compound 0.8 µM) was 0.515. The relative viability ([2]; first compound 2.53 µM) was 0.686, the relative viability ([2]; first compound 8 µM) was 0.69 and the relative viability ([3]; first compound 0.08 µM) was 0.385. It also gave a relative viability ([3]; first compound 0.8 µM) of 0.407, a relative viability ([3]; first compound 2.53 µM) of 0.371 and a relative viability ([3]; first compound 8 µM) of 0.381. The relative viability ([4]; first compound 0.08 µM) was 0.464, the relative viability ([4]; first compound 0.8 µM) was 0.319 and the relative viability ([4]; first compound 2.53 µM) was 0.441. It also gave a relative viability ([4]; first compound 8 µM) of 0.45, a relative viability ([5]; first compound 0.08 µM) of 0.554 and a relative viability ([5]; first compound 0.8 µM) of 0.658. The relative viability ([5]; first compound 2.53 µM) was 0.711, the relative viability ([5]; first compound 8 µM) was 0.623 and the relative viability ([6]; first compound 0.08 µM) was 0.402. For the same compound, the relative viability ([6]; first compound 0.8 µM) was 0.474, the relative viability ([6]; first compound 2.53 µM) was 0.472 and the relative viability ([6]; first compound 8 µM) was 0.425. For the same compound, the relative viability ([7]; first compound 0.08 µM) was 1, the relative viability ([7]; first compound 0.8 µM) was 0.771 and the relative viability ([7]; first compound 2.53 µM) was 1.15. For the same compound, the relative viability ([7]; first compound 8 µM) was 0.918, the relative viability ([8]; first compound 0.08 µM) was 0.39 and the relative viability ([8]; first compound 0.8 µM) was 0.327. The relative viability ([8]; first compound 2.53 µM) was 0.342, the relative viability ([8]; first compound 8 µM) was 0.352 and the relative viability ([9]; first compound 0.08 µM) was 0.545. It also gave a relative viability ([9]; first compound 0.8 µM) of 0.561, a relative viability ([9]; first compound 2.53 µM) of 0.443 and a relative viability ([9]; first compound 8 µM) of 0.47. It also gave a relative viability ([10]; first compound 0.08 µM) of 0.646, a relative viability ([10]; first compound 0.8 µM) of 0.603 and a relative viability ([10]; first compound 2.53 µM) of 0.609. It also gave a relative viability ([10]; first compound 8 µM) of 0.671, a relative viability ([11]; first compound 0.08 µM) of 0.45 and a relative viability ([11]; first compound 0.8 µM) of 0.431. For the same compound, the relative viability ([11]; first compound 2.53 µM) was 0.421, the relative viability ([11]; first compound 8 µM) was 0.468 and the relative viability ([12]; first compound 0.08 µM) was 0.986. For the same compound, the relative viability ([12]; first compound 0.8 µM) was 0.879, the relative viability ([12]; first compound 2.53 µM) was 0.901 and the relative viability ([12]; first compound 8 µM) was 0.849. For the same compound, the relative viability ([13]; first compound 0.08 µM) was 0.749, the relative viability ([13]; first compound 0.8 µM) was 0.779 and the relative viability ([13]; first compound 2.53 µM) was 0.827. It also gave a relative viability ([13]; first compound 8 µM) of 0.713, a relative viability ([14]; first compound 0.08 µM) of 0.624 and a relative viability ([14]; first compound 0.8 µM) of 0.627. It also gave a relative viability ([14]; first compound 2.53 µM) of 0.521, a relative viability ([14]; first compound 8 µM) of 0.618 and a relative viability ([15]; first compound 0.08 µM) of 0.765. The relative viability ([15]; first compound 0.8 µM) was 0.872, the relative viability ([15]; first compound 2.53 µM) was 0.792 and the relative viability ([15]; first compound 8 µM) was 0.524. It also gave a relative viability ([16]; first compound 0.08 µM) of 0.561, a relative viability ([16]; first compound 0.8 µM) of 0.614 and a relative viability ([16]; first compound 2.53 µM) of 0.59. The relative viability ([16]; first compound 8 µM) was 0.546, the relative viability ([17]; first compound 0.08 µM) was 0.727 and the relative viability ([17]; first compound 0.8 µM) was 0.73. For the same compound, the relative viability ([17]; first compound 2.53 µM) was 0.842, the relative viability ([17]; first compound 8 µM) was 0.777 and the relative viability ([18]; first compound 0.08 µM) was 0.623. The relative viability ([18]; first compound 0.8 µM) was 0.568, the relative viability ([18]; first compound 2.53 µM) was 0.651 and the relative viability ([18]; first compound 8 µM) was 0.644. The relative viability ([19]; first compound 0.08 µM) was 0.698, the relative viability ([19]; first compound 0.8 µM) was 0.707 and the relative viability ([19]; first compound 2.53 µM) was 0.68. For the same compound, the relative viability ([19]; first compound 8 µM) was 0.762, the relative viability ([20]; first compound 0.08 µM) was 0.776 and the relative viability ([20]; first compound 0.8 µM) was 0.617. For the same compound, the relative viability ([20]; first compound 2.53 µM) was 0.75, the relative viability ([20]; first compound 8 µM) was 0.774 and the relative viability ([21]; first compound 0.08 µM) was 0.775. For the same compound, the relative viability ([21]; first compound 0.8 µM) was 0.85, the relative viability ([21]; first compound 2.53 µM) was 1.02 and the relative viability ([21]; first compound 8 µM) was 0.817. It also gave a relative viability ([22]; first compound 0.08 µM) of 0.73, a relative viability ([22]; first compound 0.8 µM) of 0.675 and a relative viability ([22]; first compound 2.53 µM) of 0.869. The relative viability ([22]; first compound 8 µM) was 0.733, the relative viability ([23]; first compound 0.08 µM) was 0.736 and the relative viability ([23]; first compound 0.8 µM) was 0.83. For the same compound, the relative viability ([23]; first compound 2.53 µM) was 0.883, the relative viability ([23]; first compound 8 µM) was 0.766 and the relative viability ([24]; first compound 0.08 µM) was 0.816. For the same compound, the relative viability ([24]; first compound 0.8 µM) was 0.856, the relative viability ([24]; first compound 2.53 µM) was 0.984 and the relative viability ([24]; first compound 8 µM) was 0.897. The relative viability ([25]; first compound 0.08 µM) was 0.474, the relative viability ([25]; first compound 0.8 µM) was 0.886 and the relative viability ([25]; first compound 2.53 µM) was 0.735. The relative viability ([25]; first compound 8 µM) was 0.755.
